Where only a bound is given, the exact number is not on record here.

Assay [1] concerns the target Fatty acid-binding protein, adipocyte (Homo sapiens, UniProt P15090). Description: Binding affinity to ap2.
Assay [2] addresses Fatty acid-binding protein 5 (Homo sapiens, UniProt Q01469). In words: Binding affinity to human kFABP.

Fatty acid-binding protein, adipocyte, sequence (P15090 whole entry): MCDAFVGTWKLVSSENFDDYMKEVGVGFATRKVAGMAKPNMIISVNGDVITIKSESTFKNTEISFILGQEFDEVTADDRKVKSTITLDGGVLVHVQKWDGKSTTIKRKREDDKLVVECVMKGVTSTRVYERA
Fatty acid-binding protein 5, sequence (Q01469 whole entry): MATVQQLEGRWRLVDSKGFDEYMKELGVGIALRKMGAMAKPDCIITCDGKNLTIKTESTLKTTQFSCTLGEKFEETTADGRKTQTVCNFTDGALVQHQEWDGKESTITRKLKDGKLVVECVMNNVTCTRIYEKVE

As a reminder, the Ki is a measure of affinity in units of concentration, obtained from inhibition or displacement. The low end stands for tighter binding, the high end for weaker binding. For the compound `OCC(O)c1cccc(OCc2ccccc2Cl)c1OCc1ccccc1Cl` (stereo unspecified), the inhibition constant (Ki) in assay [1] and in assay [2] was above 2000 nM in each case.
Regarding `O=C(O)Cc1cccc(OCc2ccccc2Cl)c1OCc1ccccc1Cl`, affinity in assay [1] was put at a Ki of 16 nM.
`O=C(O)C(=O)c1cccc(OCc2ccccc2Cl)c1OCc1ccccc1Cl`: the Ki in assay [1] and in assay [2] was below 2 nM throughout.
For the compound `O=C(O)[C@@H](O)c1cccc(OCc2ccccc2Cl)c1OCc1ccccc1Cl`, the Ki in assay [1] came out at 2.5 nM.

The values are drawn from ChEMBL document CHEMBL1145330, “NMR structure of a potent small molecule inhibitor bound to human keratinocyte fatty acid-binding protein” (J Med Chem, 2006).
